Assay results from patent publication US11401555B2, “Genetic polymorphisms associated with stroke, methods of detection and uses thereof” (CELERA CORPORATION, priority 2008, dated 2022).

Assay: Stroke statin response (SSR) in the CARE pravastatin trial: pravastatin-treated versus placebo-treated, by SNP genotype
Assay type: in vivo, human
Settings: for EVENTS: stroke events in pravastatin arm

CC[C@H](C)C(=O)O[C@H]1C[C@H](O)C=C2C=C[C@H](C)[C@H](CC[C@@H](O)C[C@@H](O)CC(=O)O)[C@H]21 [pravastatin]
EVENTS (CARE, rs2038366, REC, genotype GT + TT, TOTAL 789): 38
EVENTS (CARE, rs3213646 EXOD1, DOM, genotype CT + CC, TOTAL 1108): 51
EVENTS (CARE, rs3213646 EXOD1, GEN, genotype CC, TOTAL 417): 27
EVENTS (CARE, rs3213646 EXOD1, GEN, genotype CT, TOTAL 691): 24
EVENTS (CARE, rs3213646 EXOD1, GEN, genotype TT, TOTAL 245): 13
EVENTS (CARE, rs3213646 EXOD1, REC, genotype CT + TT, TOTAL 936): 37
EVENTS (CARE, rs3900940 MYH15, DOM, genotype CT + CC, TOTAL 721): 36
EVENTS (CARE, rs3900940 MYH15, GEN, genotype CC, TOTAL 160): 13
EVENTS (CARE, rs3900940 MYH15, GEN, genotype CT, TOTAL 561): 23
EVENTS (CARE, rs3900940 MYH15, GEN, genotype TT, TOTAL 620): 30
EVENTS (CARE, rs3900940 MYH15, REC, genotype CT + TT, TOTAL 1181): 53
HR (pravastatin vs placebo, ENDPT4F1, hCV1463226 rs10890 FXN, GEN, genotype CC): 0.48
HR (pravastatin vs placebo, ENDPT4F1, hCV1463226 rs10890 FXN, GEN, genotype TT): 0.41
HR (pravastatin vs placebo, ENDPT4F1, hCV1846459 rs4803759, GEN, genotype CC): 0.66
HR (pravastatin vs placebo, ENDPT4F1, hCV1846459 rs4803759, GEN, genotype TC): 0.62
HR (pravastatin vs placebo, ENDPT4F1, hCV1846459 rs4803759, REC, genotype TC + CC): 0.64
HR (pravastatin vs placebo, ENDPT4F1, hCV2442143 rs12544854 ASAH1, DOM, genotype TC + TT, first listing (TOTAL 1070)): 0.57
HR (pravastatin vs placebo, ENDPT4F1, hCV2442143 rs12544854 ASAH1, DOM, genotype TC + TT, second listing (TOTAL 1059)): 0.56
HR (pravastatin vs placebo, ENDPT4F1, hCV2442143 rs12544854 ASAH1, GEN, genotype TC, first listing (TOTAL 713)): 0.55
HR (pravastatin vs placebo, ENDPT4F1, hCV2442143 rs12544854 ASAH1, GEN, genotype TC, second listing (TOTAL 704)): 0.57
HR (pravastatin vs placebo, ENDPT4F1, hCV2741051 rs2230806 ABCA1, DOM, genotype TC + TT, first listing (TOTAL 709)): 0.47
HR (pravastatin vs placebo, ENDPT4F1, hCV2741051 rs2230806 ABCA1, DOM, genotype TC + TT, second listing (TOTAL 711)): 0.47
HR (pravastatin vs placebo, ENDPT4F1, hCV2741051 rs2230806 ABCA1, GEN, genotype TC, first listing (TOTAL 597)): 0.47
HR (pravastatin vs placebo, ENDPT4F1, hCV2741051 rs2230806 ABCA1, GEN, genotype TC, second listing (TOTAL 603)): 0.5
HR (pravastatin vs placebo, ENDPT4F1, hCV2862873 rs780094 GCKR, DOM, genotype TC + TT): 0.6
HR (pravastatin vs placebo, ENDPT4F1, hCV2959482 rs3890182 ABCA1, DOM, genotype AG + AA): 0.34
HR (pravastatin vs placebo, ENDPT4F1, hCV2959482 rs3890182 ABCA1, GEN, genotype AG): 0.34
HR (pravastatin vs placebo, ENDPT4F1, hCV3216551 rs562338, GEN, genotype GG): 0.59
HR (pravastatin vs placebo, ENDPT4F1, hCV8757333 rs1800588 LIPC, DOM, genotype TC + TT): 0.49
HR (pravastatin vs placebo, ENDPT4F1, hCV8942032 rs1264352 DDR1, DOM, genotype CG + CC, risk allele C): 0.41
HR (pravastatin vs placebo, ENDPT4F1, hCV9296529 rs4358307, GEN, genotype GA): 0.5
HR (pravastatin vs placebo, ENDPT4F1, hCV9324316 rs9305020, GEN, genotype TT): 0.7
HR (pravastatin vs placebo, ENDPT4F1, hCV9324316 rs9305020, REC, genotype CT + TT): 0.76
HR (pravastatin vs placebo, ENDPT4F1, hCV9473891 rs1555173, REC, genotype CT + TT): 0.75
HR (pravastatin vs placebo, ENDPT4F1, hCV16164743 rs2928932, GEN, genotype AA): 0.6
HR (pravastatin vs placebo, ENDPT4F1, hCV16164743 rs2928932, GEN, genotype CC): 0.31
HR (pravastatin vs placebo, ENDPT4F1, hCV22275299 rs28927680 BUD13, GEN, genotype GC): 0.2
HR (pravastatin vs placebo, ENDPT4F1, hCV26682080 rs4420638, DOM, genotype GA + GG): 0.45
HR (pravastatin vs placebo, ENDPT4F1, hCV26682080 rs4420638, GEN, genotype GA): 0.5
HR (pravastatin vs placebo, ENDPT4F1, hCV26682080 rs4420638, GEN, genotype GG): 0.25
HR (pravastatin vs placebo, ENDPT4F1, hCV29480044 rs10516433 TSPAN5, GEN, genotype TC): 0.46
HR (pravastatin vs placebo, ENDPT4F1, hCV29480044 rs10516433 TSPAN5, REC, genotype TC + CC): 0.67
HR (pravastatin vs placebo, ENDPT4F1, hCV29566897 rs10507755, REC, genotype CT + TT): 0.76
HR (pravastatin vs placebo, ENDPT4F1, hCV30454150 rs10516434 TSPAN5, GEN, genotype TC): 0.46
HR (pravastatin vs placebo, ENDPT4F1, hCV30454150 rs10516434 TSPAN5, REC, genotype TC + CC): 0.67
HR (pravastatin vs placebo, ENDPT4F1, hDV77718013, REC, genotype TC + CC): 0.74
HR (rs1048621 (hCV1619596, SDCBP2), ALL, genotype AA, MODE GEN, ENDPT4F1, pravastatin vs placebo, CARE): 0.16
HR (rs1048621 (hCV1619596, SDCBP2), ALL, genotype AG + AA, MODE DOM, ENDPT4F1, pravastatin vs placebo, CARE): 0.69
HR (rs1048621 (hCV1619596, SDCBP2), ALL, genotype AG + GG, MODE REC, ENDPT4F1, pravastatin vs placebo, CARE): 0.82
HR (rs1048621 (hCV1619596, SDCBP2), ALL, genotype AG, MODE GEN, ENDPT4F1, pravastatin vs placebo, CARE): 0.89
HR (rs1048621 (hCV1619596, SDCBP2), ALL, genotype GG, MODE GEN, ENDPT4F1, pravastatin vs placebo, CARE): 0.77
HR (rs1264352 (hCV8942032, DDR1), genotype CC, MODE GEN, ENDPT4F1, pravastatin vs placebo, CARE): 0.86
HR (rs1264352 (hCV8942032, DDR1), genotype CG + CC, MODE DOM, ENDPT4F1, pravastatin vs placebo, CARE): 0.41
HR (rs1264352 (hCV8942032, DDR1), genotype CG + GG, MODE REC, ENDPT4F1, pravastatin vs placebo, CARE): 0.73
HR (rs1264352 (hCV8942032, DDR1), genotype CG, MODE GEN, ENDPT4F1, pravastatin vs placebo, CARE): 0.39
HR (rs1264352 (hCV8942032, DDR1), genotype GG, MODE GEN, ENDPT4F1, pravastatin vs placebo, CARE): 0.84
HR (rs2857595 (hCV16134786), ALL, genotype AA, MODE GEN, ENDPT4F1, pravastatin vs placebo, CARE): 0.23
HR (rs2857595 (hCV16134786), ALL, genotype AG + AA, MODE DOM, ENDPT4F1, pravastatin vs placebo, CARE): 0.58
HR (rs2857595 (hCV16134786), ALL, genotype AG + GG, MODE REC, ENDPT4F1, pravastatin vs placebo, CARE): 0.77
HR (rs2857595 (hCV16134786), ALL, genotype AG, MODE GEN, ENDPT4F1, pravastatin vs placebo, CARE): 0.67
HR (rs2857595 (hCV16134786), ALL, genotype GG, MODE GEN, ENDPT4F1, pravastatin vs placebo, CARE): 0.8
HR (rs11079160 (hCV32160712), ALL, genotype AA, MODE GEN, ENDPT4F1, pravastatin vs placebo, CARE): 0.86
HR (rs11079160 (hCV32160712), ALL, genotype TA + AA, MODE REC, ENDPT4F1, pravastatin vs placebo, CARE): 0.78
HR (rs11079160 (hCV32160712), ALL, genotype TA + TT, MODE DOM, ENDPT4F1, pravastatin vs placebo, CARE): 0.55
HR (rs11079160 (hCV32160712), ALL, genotype TA, MODE GEN, ENDPT4F1, pravastatin vs placebo, CARE): 0.62
HR (rs11079160 (hCV32160712), ALL, genotype TT, MODE GEN, ENDPT4F1, pravastatin vs placebo, CARE): 0.24
HR (rs12762303 (hCV27830265, ALOX5), genotype AA, MODE GEN, ENDPT4F1, pravastatin vs placebo, CARE, first listing (TOTAL 1005)): 0.84
HR (rs12762303 (hCV27830265, ALOX5), genotype AA, MODE GEN, ENDPT4F1, pravastatin vs placebo, CARE, second listing (TOTAL 1002)): 0.85
HR (rs12762303 (hCV27830265, ALOX5), genotype GA + AA, MODE REC, ENDPT4F1, pravastatin vs placebo, CARE, first listing (TOTAL 1381)): 0.73
HR (rs12762303 (hCV27830265, ALOX5), genotype GA + AA, MODE REC, ENDPT4F1, pravastatin vs placebo, CARE, second listing (TOTAL 1377)): 0.73
HR (rs12762303 (hCV27830265, ALOX5), genotype GA + GG, MODE DOM, ENDPT4F1, pravastatin vs placebo, CARE, first listing (TOTAL 399)): 0.46
HR (rs12762303 (hCV27830265, ALOX5), genotype GA + GG, MODE DOM, ENDPT4F1, pravastatin vs placebo, CARE, second listing (TOTAL 398)): 0.46
HR (rs12762303 (hCV27830265, ALOX5), genotype GA, MODE GEN, ENDPT4F1, pravastatin vs placebo, CARE, first listing (TOTAL 376)): 0.47
HR (rs12762303 (hCV27830265, ALOX5), genotype GA, MODE GEN, ENDPT4F1, pravastatin vs placebo, CARE, second listing (TOTAL 375)): 0.47
HR (rs12762303 (hCV27830265, ALOX5), genotype GG, MODE GEN, ENDPT4F1, pravastatin vs placebo, CARE, first listing (TOTAL 23)): 0
HR (rs12762303 (hCV27830265, ALOX5), genotype GG, MODE GEN, ENDPT4F1, pravastatin vs placebo, CARE, second listing (TOTAL 23)): 0
